Reference: ChEMBL document CHEMBL1201862, “PubChem BioAssay data set” (2004)
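Results reflect a 48-hour exposure of cells in 96-well plates to compound at five concentrations. GI50: concentration for 50% inhibition of growth.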 The source made the active and inactive calls. Cut-off read from the data, not from the text of the source: active = GI50 up to about 1.1 µM and inactive = higher.

What was measured:
Assay in all cases: inhibition of tumour cell growth, NCI panel, 48 h
786-0 = test system: 786-0
A498 = test system: A498
A549 = test system: A549
ACHN = test system: ACHN
BT-549 = test system: BT-549
CCRF-CEM = test system: CCRF-CEM
COLO 205 = test system: COLO 205
DLD-1 = test system: DLD-1
DMS-114 = test system: DMS-114
DU-145 = test system: DU-145
HCC 2998 = test system: HCC 2998
HCT-116 = test system: HCT-116
HCT-15 = test system: HCT-15
HOP-62 = test system: HOP-62
HT-29 = test system: HT-29
Hs-578T = test system: Hs-578T
IGROV-1 = test system: IGROV-1
K562 = test system: K562
KM-20L2 = test system: KM-20L2
KM12 = test system: KM12
LOX IMVI = test system: LOX IMVI
LXFL 529 = test system: LXFL 529
M14 = test system: M14
MCF7 = test system: MCF7
MDA-MB-231 = test system: MDA-MB-231
MDA-MB-435 = test system: MDA-MB-435
MDA-N = test system: MDA-N
MOLT-4 = test system: MOLT-4
Malme-3M = test system: Malme-3M
NCI-H23 = test system: NCI-H23
NCI-H460 = test system: NCI-H460
NCI-H522 = test system: NCI-H522
NCI/ADR-RES = test system: NCI/ADR-RES
OVCAR-3 = test system: OVCAR-3
OVCAR-4 = test system: OVCAR-4
OVCAR-5 = test system: OVCAR-5
OVCAR-8 = test system: OVCAR-8
PC-3 = test system: PC-3
RPMI-8226 = test system: RPMI-8226
RXF 393 = test system: RXF 393
SF-268 = test system: SF-268
SF-539 = test system: SF-539
SK-MEL-28 = test system: SK-MEL-28
SK-MEL-5 = test system: SK-MEL-5
SN12C = test system: SN12C
SNB-75 = test system: SNB-75
SR = test system: SR
SW-620 = test system: SW-620
T47D = test system: T47D
TK-10 = test system: TK-10
U-251 = test system: U-251
UACC-62 = test system: UACC-62
UO-31 = test system: UO-31
CAKI-1 = test system: CAKI-1
EKVX = test system: EKVX
HL-60 = test system: HL-60
HOP-92 = test system: HOP-92
NCI-H226 = test system: NCI-H226
SF-295 = test system: SF-295
SK-MEL-2 = test system: SK-MEL-2
SK-OV-3 = test system: SK-OV-3
SNB-19 = test system: SNB-19
UACC-257 = test system: UACC-257

Structure (SMILES): CC(=O)O.CN1CCN(CN2C(=O)C3C4C=CC(C3C2=O)C2C3C(=O)N(CN5CCN(C)CC5)C(=O)C3C42)CC1 (stereo unspecified)
- GI50 (786-0): 19.9 µM (inactive)
- GI50 (A498): > 55.3 µM (inactive)
- GI50 (A549): 22 µM (inactive)
- GI50 (ACHN): 27.6 µM (inactive)
- GI50 (BT-549): 25.5 µM (inactive)
- GI50 (CCRF-CEM): 18500 nM (inactive)
- GI50 (COLO 205): 19 µM (inactive)
- GI50 (DLD-1): 19.1 µM (inactive)
- GI50 (DMS-114): 20.1 µM (inactive)
- GI50 (DU-145): 25.1 µM (inactive)
- GI50 (HCC 2998): 22.2 µM (inactive)
- GI50 (HCT-116): 16.6 µM (inactive)
- GI50 (HCT-15): 18900 nM
- GI50 (HOP-62): > 50 µM (inactive)
- GI50 (HT-29): 25.3 µM (inactive)
- GI50 (Hs-578T): > 100 µM (inactive)
- GI50 (IGROV-1): 35.5 µM (inactive)
- GI50 (K562): 22.2 µM (inactive)
- GI50 (KM-20L2): 20.3 µM (inactive)
- GI50 (KM12): 22.3 µM (inactive)
- GI50 (LOX IMVI): 18.2 µM (inactive)
- GI50 (LXFL 529): 18.1 µM (inactive)
- GI50 (M14): 18.9 µM (inactive)
- GI50 (MCF7): 32.3 µM (inactive)
- GI50 (MDA-MB-231): 24.4 µM (inactive)
- GI50 (MDA-MB-435): 17.1 µM (inactive)
- GI50 (MDA-N): 17.8 µM (inactive)
- GI50 (MOLT-4): 20.2 µM (inactive)
- GI50 (Malme-3M): 18.3 µM (inactive)
- GI50 (NCI-H23): 20.7 µM (inactive)
- GI50 (NCI-H460): 16.3 µM (inactive)
- GI50 (NCI-H522): 18.6 µM (inactive)
- GI50 (NCI/ADR-RES): 24.2 µM (inactive)
- GI50 (OVCAR-3): 24.3 µM (inactive)
- GI50 (OVCAR-4): 21.4 µM (inactive)
- GI50 (OVCAR-5): 23.9 µM (inactive)
- GI50 (OVCAR-8): 27.8 µM (inactive)
- GI50 (PC-3): 33.7 µM (inactive)
- GI50 (RPMI-8226): 22.2 µM (inactive)
- GI50 (RXF 393): 17.7 µM (inactive)
- GI50 (SF-268): 27.5 µM (inactive)
- GI50 (SF-539): 21.1 µM (inactive)
- GI50 (SK-MEL-28): 28 µM (inactive)
- GI50 (SK-MEL-5): 23.4 µM (inactive)
- GI50 (SN12C): 21.4 µM (inactive)
- GI50 (SNB-75): 23.3 µM (inactive)
- GI50 (SR): 13.4 µM (inactive)
- GI50 (SW-620): 22.2 µM (inactive)
- GI50 (T47D): 30 µM (inactive)
- GI50 (TK-10): 45.3 µM (inactive)
- GI50 (U-251): 19 µM (inactive)
- GI50 (UACC-62): 20.7 µM (inactive)
- GI50 (UO-31): 25.2 µM (inactive)

Structure (SMILES): CC(C)C(Cl)CCC(C)(Cl)C(=O)CBr (stereo unspecified)
- GI50 (786-0): 3.96 µM (inactive)
- GI50 (A498): 15 µM (inactive)
- GI50 (A549): 20.8 µM (inactive)
- GI50 (ACHN): 7.19 µM (inactive)
- GI50 (BT-549): 8.55 µM (inactive)
- GI50 (CAKI-1): 6.1 µM (inactive)
- GI50 (CCRF-CEM): 331 nM (active)
- GI50 (COLO 205): 3.4 µM (inactive)
- GI50 (DU-145): 17.8 µM (inactive)
- GI50 (EKVX): 18.2 µM (inactive)
- GI50 (HCC 2998): 18.5 µM (inactive)
- GI50 (HCT-116): 3.03 µM (inactive)
- GI50 (HCT-15): 2990 nM
- GI50 (HL-60): 425 nM (active)
- GI50 (HOP-62): 8.22 µM (inactive)
- GI50 (HOP-92): 10 µM (inactive)
- GI50 (HT-29): 4.36 µM (inactive)
- GI50 (Hs-578T): 5.73 µM (inactive)
- GI50 (IGROV-1): 6.67 µM (inactive)
- GI50 (K562): 1.02 µM (active)
- GI50 (KM12): 14.5 µM (inactive)
- GI50 (LOX IMVI): 0.776 µM (active)
- GI50 (M14): 3.43 µM (inactive)
- GI50 (MCF7): 2.37 µM (inactive)
- GI50 (MDA-MB-231): 5.37 µM (inactive)
- GI50 (MDA-MB-435): 4.18 µM (inactive)
- GI50 (MDA-N): 1.95 µM (inactive)
- GI50 (MOLT-4): 0.418 µM (active)
- GI50 (Malme-3M): 9.57 µM (inactive)
- GI50 (NCI-H226): 17.8 µM (inactive)
- GI50 (NCI-H23): 5.5 µM (inactive)
- GI50 (NCI-H460): 16.1 µM (inactive)
- GI50 (NCI-H522): 1.06 µM (active)
- GI50 (NCI/ADR-RES): 6.81 µM (inactive)
- GI50 (OVCAR-3): 6.18 µM (inactive)
- GI50 (OVCAR-4): 4.6 µM (inactive)
- GI50 (OVCAR-5): 12.8 µM (inactive)
- GI50 (OVCAR-8): 3.37 µM (inactive)
- GI50 (PC-3): 8.3 µM (inactive)
- GI50 (RPMI-8226): 0.634 µM (active)
- GI50 (RXF 393): 2.44 µM (inactive)
- GI50 (SF-268): 20.7 µM (inactive)
- GI50 (SF-295): 19.3 µM (inactive)
- GI50 (SF-539): 16.9 µM (inactive)
- GI50 (SK-MEL-28): 5.01 µM (inactive)
- GI50 (SK-MEL-2): 8.32 µM (inactive)
- GI50 (SK-MEL-5): 3.24 µM (inactive)
- GI50 (SK-OV-3): 20 µM (inactive)
- GI50 (SN12C): 14.5 µM (inactive)
- GI50 (SNB-19): 29.6 µM (inactive)
- GI50 (SNB-75): 16.1 µM (inactive)
- GI50 (SR): 0.845 µM (active)
- GI50 (SW-620): 2 µM (inactive)
- GI50 (T47D): 2.44 µM (inactive)
- GI50 (TK-10): 5.83 µM (inactive)
- GI50 (U-251): 12.7 µM (inactive)
- GI50 (UACC-257): 3.79 µM (inactive)
- GI50 (UACC-62): 2.77 µM (inactive)
- GI50 (UO-31): 5.98 µM (inactive)

Structure (SMILES): COc1ccc(C(=C2C(=O)N(c3ccccc3)C(=O)C2=C(C)C)c2ccc(OC)cc2)cc1
- GI50 (786-0): 3.43 µM (inactive)
- GI50 (A498): 2.94 µM (inactive)
- GI50 (A549): 5.21 µM (inactive)
- GI50 (ACHN): 4.69 µM (inactive)
- GI50 (BT-549): 12.4 µM (inactive)
- GI50 (CAKI-1): 3.66 µM (inactive)
- GI50 (CCRF-CEM): 546 nM (active)
- GI50 (COLO 205): 2.96 µM (inactive)
- GI50 (DU-145): 6.14 µM (inactive)
- GI50 (EKVX): 2.94 µM (inactive)
- GI50 (HCC 2998): 5.5 µM (inactive)
- GI50 (HCT-116): 3.72 µM (inactive)
- GI50 (HCT-15): 2920 nM
- GI50 (HL-60): 998 nM (active)
- GI50 (HOP-62): 9.02 µM (inactive)
- GI50 (HOP-92): 10.3 µM (inactive)
- GI50 (HT-29): 2.43 µM (inactive)
- GI50 (Hs-578T): 3.69 µM (inactive)
- GI50 (IGROV-1): 3.44 µM (inactive)
- GI50 (K562): 3.27 µM (inactive)
- GI50 (KM12): 3.53 µM (inactive)
- GI50 (LOX IMVI): 3.72 µM (inactive)
- GI50 (M14): 2.4 µM (inactive)
- GI50 (MCF7): 3.44 µM (inactive)
- GI50 (MDA-MB-231): 5.09 µM (inactive)
- GI50 (MDA-MB-435): 1.45 µM (inactive)
- GI50 (MDA-N): 1.7 µM (inactive)
- GI50 (MOLT-4): 2.54 µM (inactive)
- GI50 (Malme-3M): 6.75 µM (inactive)
- GI50 (NCI-H226): 4.56 µM (inactive)
- GI50 (NCI-H23): > 28 µM (inactive)
- GI50 (NCI-H460): 4.22 µM (inactive)
- GI50 (NCI-H522): 1.5 µM (inactive)
- GI50 (NCI/ADR-RES): 2.57 µM (inactive)
- GI50 (OVCAR-3): 3.56 µM (inactive)
- GI50 (OVCAR-4): 3.23 µM (inactive)
- GI50 (OVCAR-5): 8.69 µM (inactive)
- GI50 (OVCAR-8): 8.41 µM (inactive)
- GI50 (PC-3): 4.33 µM (inactive)
- GI50 (RPMI-8226): 4.1 µM (inactive)
- GI50 (RXF 393): 2.09 µM (inactive)
- GI50 (SF-268): 9.95 µM (inactive)
- GI50 (SF-295): 3.17 µM (inactive)
- GI50 (SF-539): 2.99 µM (inactive)
- GI50 (SK-MEL-28): 3.09 µM (inactive)
- GI50 (SK-MEL-2): 3.97 µM (inactive)
- GI50 (SK-MEL-5): 4.61 µM (inactive)
- GI50 (SK-OV-3): 4.79 µM (inactive)
- GI50 (SN12C): 4.02 µM (inactive)
- GI50 (SNB-19): 4.07 µM (inactive)
- GI50 (SNB-75): 2.87 µM (inactive)
- GI50 (SR): 1.09 µM (active)
- GI50 (SW-620): 3.19 µM (inactive)
- GI50 (T47D): 3.27 µM (inactive)
- GI50 (TK-10): 14 µM (inactive)
- GI50 (U-251): 3.37 µM (inactive)
- GI50 (UACC-257): 5.05 µM (inactive)
- GI50 (UACC-62): 3.41 µM (inactive)
- GI50 (UO-31): 2.75 µM (inactive)
